Assay results from DBAASP.
In brackets after ≈: the same amount, converted by molar mass. One block for each compound: values may come before it.

Assays:
Assay in all cases: ≥ marks a high value that may be exact or a test limit, other limits are often not marked, values filed in µg/mL are converted to µM
Escherichia coli JW0013 = test system: Escherichia coli JW0013
[1] = test system: Bacillus subtilis ATCC 23857
[2] = test system: Cryptococcus neoformans ATCC 28957
[3] = test system: Staphylococcus aureus ATCC 25923
[4] = test system: Escherichia coli K12 MG1655
[5] = test system: Bacillus cereus ATCC 11778
[6] = test system: Bacillus thuringiensis ATCC 10792
[7] = test system: Enterococcus faecium CCT 5079
[8] = test system: Enterococcus hirae ATCC 10541
[9] = test system: Escherichia coli ATCC 11775
[10] = test system: Escherichia coli ATCC 25922
[11] = test system: Escherichia coli CCT 1457
[12] = test system: Micrococcus luteus ATCC 4698
[13] = test system: Pseudomonas aeruginosa ATCC 13388
[14] = test system: Pseudomonas aeruginosa ATCC 15422
[15] = test system: Salmonella enterica subsp. enterica serovar Choleraesuis ATCC 10708
[16] = test system: Salmonella enterica subsp. enterica serovar Typhimurium ATCC 14028
[17] = test system: Staphylococcus aureus CCT 2580
[18] = test system: Staphylococcus aureus CCT 6538
[19] = test system: Staphylococcus epidermidis ATCC 12228
[20] = test system: Streptococcus mutans AU159
[21] = test system: Streptococcus pneumoniae ATCC 11733
[22] = test system: Aeromonas salmonicida 97-4
[23] = test system: Aeromonas salmonicida 99-1
Candida albicans C627 = test system: Candida albicans C627
[24] = test system: Escherichia coli CGSC 4908
Escherichia coli DC2 = test system: Escherichia coli DC2
Escherichia coli UB1005 = test system: Escherichia coli UB1005
[25] = test system: Pseudomonas aeruginosa K799
[26] = test system: Pseudomonas aeruginosa Z61
[27] = test system: Salmonella enterica serovar typhimurium MS7953s
[28] = test system: Salmonella enterica subsp. enterica serovar Typhimurium ATCC 14028s
[29] = test system: Staphylococcus aureus C623
[30] = test system: Staphylococcus epidermidis C621

SMILES: CC[C@H](C)[C@H](NC(=O)[C@H](CCCN=C(N)N)NC(=O)[C@H](CCCN=C(N)N)NC(=O)[C@@H]1CCCN1C(=O)[C@@H]1CCCN1C(=O)[C@H](CCCN=C(N)N)NC(=O)[C@@H]1CCCN1C(=O)[C@H](CCCN=C(N)N)NC(=O)[C@@H]1CCCN1C(=O)[C@H](CC(C)C)NC(=O)[C@H](CCCN=C(N)N)NC(=O)[C@@H]1CCCN1C(=O)[C@H](CCCCN)NC(=O)[C@H](CCCCN)NC(=O)[C@H](CC(=O)O)NC(=O)[C@@H](N)C(C)C)C(=O)N[C@@H](Cc1ccc(O)cc1)C(=O)N[C@@H](CC(N)=O)C(=O)N[C@@H](CCCN=C(N)N)C(N)=O [VDKKPRLPRPRPPRRIYNR]
MIC (Escherichia coli JW0013): 0.663 µM (≈ 1.6 µg/mL)

SMILES: CC[C@H](C)[C@H](NC(=O)[C@H](Cc1ccccc1)NC(=O)[C@H](CC(N)=O)NC(=O)[C@H](Cc1ccc(O)cc1)NC(=O)[C@H](CC(C)C)NC(=O)CN)C(=O)N[C@@H](CCCCN)C(=O)N[C@H](C(=O)N[C@@H](CC(C)C)C(=O)NCC(=O)N[C@@H](CCCN=C(N)N)C(=O)N[C@H](C(=O)N[C@H](C(=O)N[C@@H](Cc1ccccc1)C(=O)NCC(=O)N[C@@H](CC(C)C)C(=O)N[C@@H](Cc1ccc(O)cc1)C(=O)N[C@@H](CCCCN)C(=O)N[C@@H](CCC(N)=O)C(=O)N[C@@H](Cc1ccccc1)C(N)=O)C(C)C)[C@@H](C)O)C(C)C [GLYNFIKVLGRTVFGLYKQF]
MIC [1]: ≥ 256 µM
MIC [2]: ≥ 64 µM
MIC [3]: 16 µM (≈ 37.8 µg/mL)

SMILES: CC[C@H](C)[C@H](NC(=O)CNC(=O)[C@@H](NC(=O)[C@H](CCCCN)NC(=O)[C@H](C)NC(=O)[C@H](CC(C)C)NC(=O)[C@H](CS)NC(=O)[C@H](CCCCN)NC(=O)[C@H](Cc1c[nH]c2ccccc12)NC(=O)[C@@H](N)CCCCN)C(C)C)C(=O)N[C@@H](C)C(=O)N[C@@H](C)C(=O)N[C@@H](Cc1cnc[nH]1)C(=O)O [KWKCLAKVGIAAH]
MIC [4]: ≥ 89.8 µM

SMILES: CC[C@H](C)[C@H](N)C(=O)N[C@@H](CC(N)=O)C(=O)N[C@@H](Cc1c[nH]c2ccccc12)C(=O)N[C@@H](CC(C)C)C(=O)N[C@@H](CCCCN)C(=O)N[C@H](C(=O)N[C@@H](C)C(=O)N[C@@H](C)C(=O)N[C@@H](C)C(=O)N[C@H](C(=O)N[C@@H](C)C(=O)NCC(=O)N[C@@H](CCSC)C(=O)N[C@@H](CC(C)C)C(N)=O)C(C)C)[C@@H](C)CC [INWLKIAAAVAGML]
MIC [5]: ≥ 85 µM
MIC [6]: ≥ 85 µM
MIC [7]: ≥ 340 µM
MIC [8]: ≥ 340 µM
MIC [9]: ≥ 340 µM
MIC [10]: 85 µM (≈ 125 µg/mL)
MIC [11]: 21.1 µM (≈ 31 µg/mL)
MIC [12]: ≥ 85 µM
MIC [13]: ≥ 340 µM
MIC [14]: 21.1 µM (≈ 31 µg/mL)
MIC [15]: ≥ 340 µM
MIC [16]: 340 µM (≈ 500 µg/mL)
MIC [3]: 170 µM (≈ 250 µg/mL)
MIC [17]: 0.68 µM (≈ 0.999 µg/mL)
MIC [18]: ≥ 170 µM
MIC [19]: 42.8 µM (≈ 63 µg/mL)
MIC [20]: ≥ 340 µM
MIC [21]: 1.36 µM (≈ 2 µg/mL)

SMILES: CC[C@H](C)[C@H](N)C(=O)N[C@@H](CC(N)=O)C(=O)N[C@@H](Cc1c[nH]c2ccccc12)C(=O)N[C@@H](CCCCN)C(=O)N[C@@H](CCCCN)C(=O)N[C@H](C(=O)N[C@@H](CCCCN)C(=O)N[C@@H](CCCCN)C(=O)N[C@@H](CCCCN)C(=O)N[C@H](C(=O)N[C@@H](CCCCN)C(=O)NCC(=O)N[C@@H](CCSC)C(=O)N[C@@H](CC(C)C)C(N)=O)C(C)C)[C@@H](C)CC [INWKKIKKKVKGML]
MIC [5]: ≥ 72.9 µM
MIC [6]: ≥ 72.9 µM
MIC [7]: 1.17 µM (≈ 2 µg/mL)
MIC [8]: ≥ 36.8 µM
MIC [9]: 9.33 µM (≈ 16 µg/mL)
MIC [10]: 9.33 µM (≈ 16 µg/mL)
MIC [11]: 0.583 µM (≈ 1 µg/mL)
MIC [12]: 0.583 µM (≈ 1 µg/mL)
MIC [13]: 9.33 µM (≈ 16 µg/mL)
MIC [14]: 9.33 µM (≈ 16 µg/mL)
MIC [15]: 18.1 µM (≈ 31 µg/mL)
MIC [16]: 4.67 µM (≈ 8 µg/mL)
MIC [3]: 1.17 µM (≈ 2 µg/mL)
MIC [17]: 1.17 µM (≈ 2 µg/mL)
MIC [18]: ≥ 36.8 µM
MIC [19]: 0.583 µM (≈ 1 µg/mL)
MIC [20]: 9.33 µM (≈ 16 µg/mL)
MIC [21]: 0.583 µM (≈ 1 µg/mL)

More lines, now with the values ahead:

MIC (Escherichia coli JW0013): 1.4 µM (≈ 3.3 µg/mL)
SMILES: CC[C@H](C)[C@H](NC(=O)[C@H](CCCN=C(N)N)NC(=O)[C@H](CCCN=C(N)N)NC(=O)[C@@H]1CCCN1C(=O)[C@@H]1CCCN1C(=O)[C@H](CCCN=C(N)N)NC(=O)[C@@H]1CCCN1C(=O)[C@H](CCCN=C(N)N)NC(=O)[C@@H]1CCCN1C(=O)[C@H](CC(C)C)NC(=O)[C@H](Cc1ccc(O)cc1)NC(=O)[C@@H]1CCCN1C(=O)CNC(=O)[C@H](CCCCN)NC(=O)[C@H](CC(=O)O)NC(=O)[C@@H](N)C(C)C)C(=O)N[C@@H](Cc1ccc(O)cc1)C(=O)N[C@@H](CC(N)=O)C(=O)N[C@@H](CCCN=C(N)N)C(N)=O [VDKGPYLPRPRPPRRIYNR]

MIC [22]: 5.61 µM (≈ 16 µg/mL)
MIC [23]: 11.2 µM (≈ 32 µg/mL)
MIC (Candida albicans C627): 22.4 µM (≈ 64 µg/mL)
MIC [24]: 5.61 µM (≈ 16 µg/mL)
MIC (Escherichia coli DC2): 5.61 µM (≈ 16 µg/mL)
MIC (Escherichia coli UB1005): 5.61 µM (≈ 16 µg/mL)
MIC [25]: 11.2 µM (≈ 32 µg/mL)
MIC [26]: 2.81 µM (≈ 7.99 µg/mL)
MIC [27]: 5.61 µM (≈ 16 µg/mL)
MIC [28]: 22.4 µM (≈ 64 µg/mL)
MIC [29]: 5.61 µM (≈ 16 µg/mL)
MIC [30]: 5.61 µM (≈ 16 µg/mL)
SMILES: CC[C@H](C)[C@H](NC(=O)[C@H](C)NC(=O)CNC(=O)[C@H](Cc1cnc[nH]1)NC(=O)[C@@H](NC(=O)[C@H](Cc1ccccc1)NC(=O)[C@H](CCCCN)NC(=O)CNC(=O)[C@H](C)NC(=O)[C@H](CCCCN)NC(=O)[C@H](Cc1ccccc1)NC(=O)[C@@H](NC(=O)[C@H](Cc1cnc[nH]1)NC(=O)[C@H](CCCCN)NC(=O)[C@H](Cc1ccccc1)NC(=O)[C@@H](NC(=O)[C@H](CO)NC(=O)CNC(=O)[C@H](Cc1c[nH]c2ccccc12)NC(=O)CNC(=O)[C@H](C)N)[C@@H](C)CC)[C@@H](C)CC)[C@@H](C)CC)C(=O)N[C@@H](CCC(N)=O)C(=O)N[C@@H](C)C(=O)N[C@@H](Cc1cnc[nH]1)C(=O)N[C@@H](CC(N)=O)C(=O)N[C@@H](CC(=O)O)C(C)=O [AGWGSIFKHIFKAGKFIHGAIQAHND]

MIC [22]: 0.399 µM (≈ 0.999 µg/mL)
MIC [23]: 0.798 µM (≈ 2 µg/mL)
MIC (Candida albicans C627): 3.19 µM (≈ 7.99 µg/mL)
MIC [24]: 0.399 µM (≈ 0.999 µg/mL)
MIC (Escherichia coli DC2): 0.399 µM (≈ 0.999 µg/mL)
MIC (Escherichia coli UB1005): 1.6 µM (≈ 4 µg/mL)
MIC [25]: 1.6 µM (≈ 4 µg/mL)
MIC [26]: 0.798 µM (≈ 2 µg/mL)
MIC [27]: 0.399 µM (≈ 0.999 µg/mL)
MIC [28]: 3.19 µM (≈ 7.99 µg/mL)
MIC [29]: 6.39 µM (≈ 16 µg/mL)
MIC [30]: 12.8 µM (≈ 32 µg/mL)
SMILES: CC[C@H](C)[C@H](NC(=O)[C@H](C)NC(=O)[C@H](C)NC(=O)[C@H](CCC(N)=O)NC(=O)CNC(=O)[C@H](CC(C)C)NC(=O)[C@H](Cc1cnc[nH]1)NC(=O)[C@H](CCCCN)NC(=O)[C@H](C)NC(=O)CNC(=O)[C@H](CCCCN)NC(=O)[C@H](CCCNC(=N)N)NC(=O)[C@H](CC(C)C)NC(=O)[C@H](Cc1c[nH]c2ccccc12)NC(=O)[C@H](CCCCN)NC(=O)[C@H](CCCCN)NC(=O)[C@H](Cc1c[nH]c2ccccc12)NC(=O)CN)C(=O)N[C@@H](CCCCN)C(=O)NCC(=O)N[C@@H](CC(C)C)C(=O)N[C@@H](C)C(=O)N[C@@H](CO)C(C)=O [GWKKWLRKGAKHLGQAAIKGLAS]
